Measured values taken from patent US12139520B2 (priority 2020, dated 2024).
Bridge positions count the residues as written; N and C are the ends. Square brackets hold non-standard residues; d marks the D form. Peptide text beside a SMILES is read from it. Hyp = O=C(O)[C@@H]1C[C@@H](O)CN1

Experiment: Physical stability of peptide analogues (Thioflavin T fibrillation)
Format: physicochemical
Conditions: maximum ThT signal normalized between hAMY maximum and buffer background; 40° C., shaking, four days; pH 7 per table title
Protocol: General Protocols for Determination of Physical Stability of Peptide Analogues
Peptides were dissolved in buffers (50 mM sodium acetate at pH 4 or 50 mM sodium phosphate at pH 7) and incubated for one hour. The samples were then divided into two replicates of 80 μl in a black 384 well plate (μ-clear, Greiner Bio-One) and mixed with Thioflavin T (ThT) to a final concentration of 4 μM. The plate was sealed and placed in a plate reader (CLARIOstar, BMG) where the temperature was set at 40° C. during the course of the experiment. The samples were further stressed by shaking the plate at 700 rpm (linear) for five minutes before every measurement. The fluorescence was measured every 10 min for four days by exciting the ThT at 450 nm and measuring the emission at 480 nm. For each peptide, the ThT signal over time was smoothened using Local Polynomial Regression fitting (LOESS) as implemented in the statistical programming environment R. For the smoothened data, the maximum ThT signal was normalized in percent between the maximum ThT signal for hAMY and the buffer background.

SMILES	Max ThT signal (%)
CC[C@H](C)[C@H](NC(=O)[C@H](CCC(N)=O)NC(=O)[C@H](Cc1c[nH]cn1)NC(=O)[C@H](C)NC(=O)[C@H](CC(C)C)NC(=O)[C@H](CCCNC(=N)N)NC(=O)[C@H](CCC(N)=O)NC(=O)[C@@H](NC(=O)[C@@H](NC(=O)[C@@H]1CSSC[C@H](NC(=O)CN)C(=O)N[C@@H](CCCNC(=N)N)C(=O)N[C@@H]([C@@H](C)O)C(=O)NCC(=O)N[C@@H]([C@@H](C)O)C(=O)N1)[C@@H](C)O)C(C)C)C(=O)N[C@@H](Cc1ccc(O)cc1)C(=O)N[C@@H](CCC(N)=O)C(=O)N[C@@H](Cc1ccccc1)C(=O)N[C@H](C(=O)N[C@@H](CC(=O)O)C(=O)N[C@@H](CCCCN)C(=O)N[C@@H](CC(=O)O)C(=O)N[C@@H](CCCCN)C(=O)N[C@@H](CC(=O)O)C(=O)N[C@@H](CC(N)=O)C(=O)N[C@H](C(=O)N[C@@H](C)C(=O)N1CCC[C@H]1C(=O)N[C@@H](CCCNC(=N)N)C(=O)N[C@H](C(=O)N[C@@H](CCCCN)C(=O)N[C@H](C(=O)N[C@@H](CO)C(=O)N1CCC[C@H]1C(=O)N[C@@H](CC(N)=O)C(=O)NCC(=O)N1C[C@H](O)C[C@H]1C(N)=O)[C@@H](C)CC)[C@@H](C)O)C(C)C)[C@@H](C)O [compound 197] (H-GCRTGTCTVQRLAHQIYQFTDKDKDNVAPRTKISPNG[Hyp]-NH2; disulfide 2-7; N-terminus assumed)	5.600%
CC[C@H](C)[C@@H]1NC(=O)[C@H](CCCNC(=N)N)NC(=O)[C@@H](NC(=O)CN)CSSC[C@@H](C(=O)N[C@H](C(=O)N[C@H](C(=O)N[C@@H](CCC(N)=O)C(=O)N[C@@H](CCCNC(=N)N)C(=O)N[C@@H](CC(C)C)C(=O)N[C@@H](C)C(=O)N[C@@H](Cc2c[nH]cn2)C(=O)N[C@@H](CCC(N)=O)C(=O)N[C@H](C(=O)N[C@@H](Cc2ccc(O)cc2)C(=O)N[C@@H](CCC(N)=O)C(=O)N[C@@H](Cc2ccccc2)C(=O)N[C@H](C(=O)N[C@@H](CC(N)=O)C(=O)N[C@@H](CCCCN)C(=O)N[C@@H](CC(=O)O)C(=O)N[C@@H](CCCCN)C(=O)N[C@@H](CC(=O)O)C(=O)N[C@@H](CC(N)=O)C(=O)N[C@H](C(=O)N[C@@H](C)C(=O)N2CCC[C@H]2C(=O)N[C@@H](CCCNC(=N)N)C(=O)N[C@@H](CO)C(=O)N[C@@H](CCCCN)C(=O)N[C@H](C(=O)N[C@@H](CO)C(=O)N2CCC[C@H]2C(=O)N[C@@H](CCC(N)=O)C(=O)N[C@H](C(=O)N2C[C@H](O)C[C@H]2C(N)=O)[C@@H](C)O)[C@@H](C)CC)C(C)C)[C@@H](C)O)[C@@H](C)CC)C(C)C)[C@@H](C)O)NC(=O)[C@H]([C@@H](C)O)NC(=O)CNC1=O [compound 198] (H-GCRIGTCTVQRLAHQIYQFTNKDKDNVAPRSKISPQT[Hyp]-NH2; disulfide 2-7; N-terminus assumed)	4.200%
CC[C@H](C)[C@H](NC(=O)[C@H](CCC(N)=O)NC(=O)[C@H](Cc1c[nH]cn1)NC(=O)[C@H](C)NC(=O)[C@H](CC(C)C)NC(=O)[C@H](CCCNC(=N)N)NC(=O)[C@H](CCC(N)=O)NC(=O)[C@@H](NC(=O)[C@@H](NC(=O)[C@@H]1CSSC[C@H](NC(=O)CN)C(=O)N[C@@H](CCCNC(=N)N)C(=O)N[C@@H]([C@@H](C)O)C(=O)NCC(=O)N[C@@H]([C@@H](C)O)C(=O)N1)[C@@H](C)O)C(C)C)C(=O)N[C@@H](Cc1ccc(O)cc1)C(=O)N[C@@H](CCC(N)=O)C(=O)N[C@@H](Cc1ccccc1)C(=O)N[C@H](C(=O)N[C@@H](CC(=O)O)C(=O)N[C@@H](CCCCN)C(=O)N[C@@H](CC(=O)O)C(=O)N[C@@H](CCCCN)C(=O)N[C@@H](CC(=O)O)C(=O)N[C@@H](CC(N)=O)C(=O)N[C@H](C(=O)N[C@@H](C)C(=O)N1CCC[C@H]1C(=O)N[C@@H](CCCNC(=N)N)C(=O)N[C@@H](CO)C(=O)N[C@@H](CCCCN)C(=O)N[C@H](C(=O)N[C@@H](CO)C(=O)N1CCC[C@H]1C(=O)N[C@@H](CC(N)=O)C(=O)NCC(=O)N1C[C@H](O)C[C@H]1C(N)=O)C(C)C)C(C)C)[C@@H](C)O [compound 204] (H-GCRTGTCTVQRLAHQIYQFTDKDKDNVAPRSKVSPNG[Hyp]-NH2; disulfide 2-7; N-terminus assumed)	2.200%

Results, then the molecule that gave them:

Max ThT signal (%)	SMILES
8.900%	CC[C@H](C)[C@H](NC(=O)[C@H](CCC(N)=O)NC(=O)[C@H](Cc1c[nH]cn1)NC(=O)[C@H](C)NC(=O)[C@H](CC(C)C)NC(=O)[C@H](CCCNC(=N)N)NC(=O)[C@H](CCC(N)=O)NC(=O)[C@@H](NC(=O)[C@@H](NC(=O)[C@@H]1CSSC[C@H](NC(=O)CN)C(=O)N[C@@H](CCCNC(=N)N)C(=O)N[C@@H]([C@@H](C)O)C(=O)NCC(=O)N[C@@H]([C@@H](C)O)C(=O)N1)[C@@H](C)O)C(C)C)C(=O)N[C@@H](Cc1ccc(O)cc1)C(=O)N[C@@H](CCC(N)=O)C(=O)N[C@@H](Cc1ccccc1)C(=O)N[C@H](C(=O)N[C@@H](CC(=O)O)C(=O)N[C@@H](CCCCN)C(=O)N[C@@H](CC(=O)O)C(=O)N[C@@H](CCCCN)C(=O)N[C@@H](CC(=O)O)C(=O)N[C@@H](CC(N)=O)C(=O)N[C@H](C(=O)N[C@@H](C)C(=O)N1CCC[C@H]1C(=O)N[C@@H](CCCNC(=N)N)C(=O)N[C@H](C(=O)N[C@@H](CC(N)=O)C(=O)N[C@H](C(=O)N[C@@H](CO)C(=O)N1CCC[C@H]1C(=O)N[C@@H](CCC(N)=O)C(=O)NCC(=O)N[C@@H](Cc1ccc(O)cc1)C(N)=O)[C@@H](C)CC)[C@@H](C)O)C(C)C)[C@@H](C)O [compound 199] (H-GCRTGTCTVQRLAHQIYQFTDKDKDNVAPRTNISPQGY-NH2; disulfide 2-7; N-terminus assumed)
5.200%	CC[C@H](C)[C@H](NC(=O)[C@H](CCC(N)=O)NC(=O)[C@H](Cc1c[nH]cn1)NC(=O)[C@H](C)NC(=O)[C@H](CC(C)C)NC(=O)[C@H](CCCNC(=N)N)NC(=O)[C@H](CCC(N)=O)NC(=O)[C@@H](NC(=O)[C@@H](NC(=O)[C@@H]1CSSC[C@H](NC(=O)CN)C(=O)N[C@@H](CCCNC(=N)N)C(=O)N[C@@H]([C@@H](C)O)C(=O)NCC(=O)N[C@@H]([C@@H](C)O)C(=O)N1)[C@@H](C)O)C(C)C)C(=O)N[C@@H](Cc1ccc(O)cc1)C(=O)N[C@@H](CCC(N)=O)C(=O)N[C@@H](Cc1ccccc1)C(=O)N[C@H](C(=O)N[C@@H](CC(=O)O)C(=O)N[C@@H](CCCCN)C(=O)N[C@@H](Cc1ccccc1)C(=O)N[C@@H](CCCCN)C(=O)N[C@@H](CC(=O)O)C(=O)N[C@@H](CC(N)=O)C(=O)N[C@H](C(=O)N[C@@H](C)C(=O)N1CCC[C@H]1C(=O)N[C@@H](CCCNC(=N)N)C(=O)N[C@@H](CO)C(=O)N[C@@H](CCCCN)C(=O)N[C@H](C(=O)N[C@@H](CO)C(=O)N1CCC[C@H]1C(=O)N[C@@H](CCC(N)=O)C(=O)N[C@@H](Cc1ccccc1)C(=O)N1C[C@H](O)C[C@H]1C(N)=O)[C@@H](C)CC)C(C)C)[C@@H](C)O [compound 211] (H-GCRTGTCTVQRLAHQIYQFTDKFKDNVAPRSKISPQF[Hyp]-NH2; disulfide 2-7; N-terminus assumed)
